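1) Cells in 96-well plates. 2) Compound, 48 h, 5 concentrations. 3) Linear interpolation between surrounding doses. 4) Unreached endpoint = highest concentration. TGI denotes the concentration required for complete inhibition of growth.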
tested on: SK-OV-3 ovarian; assay: NCI-60 cell line screen, 48 h

| Structure (SMILES) | TGI [µM] |
| --- | --- |
| CCCCN(CCCC)CC(O)c1cc(-c2ccc(C(F)(F)F)cc2)nc(-c2ccc(C(F)(F)F)cc2)c1 (centres undefined) | > 100 |
| CC(C)(C)[Si](OC1CC(n2cnc3c(N)ncnc32)OC1CO)(c1ccccc1)c1ccccc1 (centres undefined) | 32.7 |
| NS(=O)(=O)c1ccc(N=Nc2nc3[nH]c(=O)[nH]c(=O)c3[nH]2)cc1 | > 100 |
| CC1=CC(C)C/C=C/C2C3OC3(C)C(C)C3C(Cc4c[nH]c5ccccc45)NC(=O)C23C(=O)C=CC(=O)C1O (centres undefined) | 25.2 |
| O=C(O)c1ccc(Nc2c3ccccc3nc3ccccc23)cc1 | > 100 |
| Cc1cc(C)n(C(=C(C(Cl)=C(Cl)Cl)[N+](=O)[O-])n2nc(C)cc2C)n1 | 8.69 |
| COc1ccc(C2COc3cc(OC(C)=O)c(OC(C)=O)cc3C2)cc1 (centres undefined) | 82.3 |
| CCOc1cc2c(OCc3ccccc3)cc3c4cc(OC)c(OC)cc4c[n+](C)c3c2cc1OC | 19.4 |
| C/C(=N\NC(=S)N1CCCCC1)c1nc2ncccc2[nH]1 | > 100 |

tested on: HCT-116 colon; assay: NCI-60 cell line screen, 48 h

| Structure (SMILES) | TGI [µM] |
| --- | --- |
| c1nc(OCC2CCCCC2)c2[nH]cnc2n1 | > 100 |
| Oc1cn(-c2ccc(Cl)cc2)nc1-c1nnc(-c2ccccc2)o1 | 1.14 |
| COc1ccc(N2C(=O)/C(=C(\C)c3cc4ccccc4oc3=O)N=C2c2cc([N+](=O)[O-])ccc2Cl)cc1 | > 100 |
| O=C(O)CC(CC(=O)O)C(=O)O | > 100 |
| CC(=O)N(C)c1ccc(Nc2cc(C)[nH]c3ccc4ncnc4c23)cc1 | 16.5 |
| FC(F)(F)c1ccc(N=C/C=C(/Nc2ccc(C(F)(F)F)cc2)c2ccc(Cl)cc2)cc1 | 24.5 |
| CCCCN(CCCC)CC(O)c1cc(-c2ccc(C(F)(F)F)cc2)nc(-c2ccc(C(F)(F)F)cc2)c1 (centres undefined) | > 100 |
| CC(C)(C)[Si](OC1CC(n2cnc3c(N)ncnc32)OC1CO)(c1ccccc1)c1ccccc1 (centres undefined) | 31.3 |
| NS(=O)(=O)c1ccc(N=Nc2nc3[nH]c(=O)[nH]c(=O)c3[nH]2)cc1 | > 100 |
| CC1=CC(C)C/C=C/C2C3OC3(C)C(C)C3C(Cc4c[nH]c5ccccc45)NC(=O)C23C(=O)C=CC(=O)C1O (centres undefined) | 8.4 |
| O=C(O)c1ccc(Nc2c3ccccc3nc3ccccc23)cc1 | > 100 |
| Cc1cc(C)n(C(=C(C(Cl)=C(Cl)Cl)[N+](=O)[O-])n2nc(C)cc2C)n1 | 14.5 |
| COc1ccc(C2COc3cc(OC(C)=O)c(OC(C)=O)cc3C2)cc1 (centres undefined) | 47.3 |
| C/C(=N\NC(=S)N1CCCCC1)c1nc2ncccc2[nH]1 | 22.7 |

tested on: SNB-19 CNS; assay: NCI-60 cell line screen, 48 h

| Structure (SMILES) | TGI [µM] |
| --- | --- |
| c1nc(OCC2CCCCC2)c2[nH]cnc2n1 | > 100 |
| Oc1cn(-c2ccc(Cl)cc2)nc1-c1nnc(-c2ccccc2)o1 | > 68.5 |
| COc1ccc(N2C(=O)/C(=C(\C)c3cc4ccccc4oc3=O)N=C2c2cc([N+](=O)[O-])ccc2Cl)cc1 | > 100 |
| O=C(O)CC(CC(=O)O)C(=O)O | > 100 |
| CC(=O)N(C)c1ccc(Nc2cc(C)[nH]c3ccc4ncnc4c23)cc1 | 42.4 |
| FC(F)(F)c1ccc(N=C/C=C(/Nc2ccc(C(F)(F)F)cc2)c2ccc(Cl)cc2)cc1 | 25 |
| CCCCN(CCCC)CC(O)c1cc(-c2ccc(C(F)(F)F)cc2)nc(-c2ccc(C(F)(F)F)cc2)c1 (centres undefined) | > 100 |
| CC(C)(C)[Si](OC1CC(n2cnc3c(N)ncnc32)OC1CO)(c1ccccc1)c1ccccc1 (centres undefined) | 50 |
| NS(=O)(=O)c1ccc(N=Nc2nc3[nH]c(=O)[nH]c(=O)c3[nH]2)cc1 | > 100 |
| CC1=CC(C)C/C=C/C2C3OC3(C)C(C)C3C(Cc4c[nH]c5ccccc45)NC(=O)C23C(=O)C=CC(=O)C1O (centres undefined) | > 46.6 |
| O=C(O)c1ccc(Nc2c3ccccc3nc3ccccc23)cc1 | > 100 |
| Cc1cc(C)n(C(=C(C(Cl)=C(Cl)Cl)[N+](=O)[O-])n2nc(C)cc2C)n1 | 16.2 |
| COc1ccc(C2COc3cc(OC(C)=O)c(OC(C)=O)cc3C2)cc1 (centres undefined) | 33.4 |
| CCOc1cc2c(OCc3ccccc3)cc3c4cc(OC)c(OC)cc4c[n+](C)c3c2cc1OC | 2.44 |
| C/C(=N\NC(=S)N1CCCCC1)c1nc2ncccc2[nH]1 | > 100 |

tested on: ACHN renal; assay: NCI-60 cell line screen, 48 h

| Structure (SMILES) | TGI [µM] |
| --- | --- |
| c1nc(OCC2CCCCC2)c2[nH]cnc2n1 | > 100 |
| Oc1cn(-c2ccc(Cl)cc2)nc1-c1nnc(-c2ccccc2)o1 | 24.5 |
| COc1ccc(N2C(=O)/C(=C(\C)c3cc4ccccc4oc3=O)N=C2c2cc([N+](=O)[O-])ccc2Cl)cc1 | > 100 |
| O=C(O)CC(CC(=O)O)C(=O)O | > 100 |
| CC(=O)N(C)c1ccc(Nc2cc(C)[nH]c3ccc4ncnc4c23)cc1 | 16.3 |
| FC(F)(F)c1ccc(N=C/C=C(/Nc2ccc(C(F)(F)F)cc2)c2ccc(Cl)cc2)cc1 | 26.2 |
| CCCCN(CCCC)CC(O)c1cc(-c2ccc(C(F)(F)F)cc2)nc(-c2ccc(C(F)(F)F)cc2)c1 (centres undefined) | > 100 |
| CC(C)(C)[Si](OC1CC(n2cnc3c(N)ncnc32)OC1CO)(c1ccccc1)c1ccccc1 (centres undefined) | 31.8 |
| NS(=O)(=O)c1ccc(N=Nc2nc3[nH]c(=O)[nH]c(=O)c3[nH]2)cc1 | > 100 |
| CC1=CC(C)C/C=C/C2C3OC3(C)C(C)C3C(Cc4c[nH]c5ccccc45)NC(=O)C23C(=O)C=CC(=O)C1O (centres undefined) | 2.73 |
| Cc1cc(C)n(C(=C(C(Cl)=C(Cl)Cl)[N+](=O)[O-])n2nc(C)cc2C)n1 | 8.8 |
| CCOc1cc2c(OCc3ccccc3)cc3c4cc(OC)c(OC)cc4c[n+](C)c3c2cc1OC | > 75.2 |
| C/C(=N\NC(=S)N1CCCCC1)c1nc2ncccc2[nH]1 | > 100 |

tested on: SF-295 CNS; assay: NCI-60 cell line screen, 48 h

| Structure (SMILES) | TGI [µM] |
| --- | --- |
| c1nc(OCC2CCCCC2)c2[nH]cnc2n1 | > 100 |
| Oc1cn(-c2ccc(Cl)cc2)nc1-c1nnc(-c2ccccc2)o1 | 4.52 |
| COc1ccc(N2C(=O)/C(=C(\C)c3cc4ccccc4oc3=O)N=C2c2cc([N+](=O)[O-])ccc2Cl)cc1 | > 100 |
| O=C(O)CC(CC(=O)O)C(=O)O | > 100 |
| CC(=O)N(C)c1ccc(Nc2cc(C)[nH]c3ccc4ncnc4c23)cc1 | 39.1 |
| FC(F)(F)c1ccc(N=C/C=C(/Nc2ccc(C(F)(F)F)cc2)c2ccc(Cl)cc2)cc1 | 36.1 |
| CCCCN(CCCC)CC(O)c1cc(-c2ccc(C(F)(F)F)cc2)nc(-c2ccc(C(F)(F)F)cc2)c1 (centres undefined) | > 100 |
| CC(C)(C)[Si](OC1CC(n2cnc3c(N)ncnc32)OC1CO)(c1ccccc1)c1ccccc1 (centres undefined) | 30.5 |
| NS(=O)(=O)c1ccc(N=Nc2nc3[nH]c(=O)[nH]c(=O)c3[nH]2)cc1 | > 100 |
| CC1=CC(C)C/C=C/C2C3OC3(C)C(C)C3C(Cc4c[nH]c5ccccc45)NC(=O)C23C(=O)C=CC(=O)C1O (centres undefined) | 27.8 |
| O=C(O)c1ccc(Nc2c3ccccc3nc3ccccc23)cc1 | > 100 |
| Cc1cc(C)n(C(=C(C(Cl)=C(Cl)Cl)[N+](=O)[O-])n2nc(C)cc2C)n1 | 14.8 |
| COc1ccc(C2COc3cc(OC(C)=O)c(OC(C)=O)cc3C2)cc1 (centres undefined) | 38.7 |

Source: PubChem BioAssay (NCI)
